Reference: ChEMBL document CHEMBL1201862, “PubChem BioAssay data set” (2004)
Active and inactive are the calls of the source.

How the values were obtained:
[1] = potency of ADAM10 substrate cleavage blockers – biochemical, QFRET, dose response (AID 743254);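 further: ADAM10 enzyme with the DM2 quenched FRET peptide as substrate; EDANS fluorescence gain as the protease cuts the substrate; inhibitor potency against ADAM10 proteolytic activity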
[2] = biological target: Disintegrin and metalloproteinase domain-containing protein 17 (Homo sapiens, UniProt P78536); assay: inhibition of ADAM17 substrate cleavage – biochemical, quenched FRET substrate, counter-screen for ADAM10 exosite inhibitor project, dose response (AID 743253)
Sequence of Disintegrin and metalloproteinase domain-containing protein 17 (P78536 whole entry, the tested form may be a part): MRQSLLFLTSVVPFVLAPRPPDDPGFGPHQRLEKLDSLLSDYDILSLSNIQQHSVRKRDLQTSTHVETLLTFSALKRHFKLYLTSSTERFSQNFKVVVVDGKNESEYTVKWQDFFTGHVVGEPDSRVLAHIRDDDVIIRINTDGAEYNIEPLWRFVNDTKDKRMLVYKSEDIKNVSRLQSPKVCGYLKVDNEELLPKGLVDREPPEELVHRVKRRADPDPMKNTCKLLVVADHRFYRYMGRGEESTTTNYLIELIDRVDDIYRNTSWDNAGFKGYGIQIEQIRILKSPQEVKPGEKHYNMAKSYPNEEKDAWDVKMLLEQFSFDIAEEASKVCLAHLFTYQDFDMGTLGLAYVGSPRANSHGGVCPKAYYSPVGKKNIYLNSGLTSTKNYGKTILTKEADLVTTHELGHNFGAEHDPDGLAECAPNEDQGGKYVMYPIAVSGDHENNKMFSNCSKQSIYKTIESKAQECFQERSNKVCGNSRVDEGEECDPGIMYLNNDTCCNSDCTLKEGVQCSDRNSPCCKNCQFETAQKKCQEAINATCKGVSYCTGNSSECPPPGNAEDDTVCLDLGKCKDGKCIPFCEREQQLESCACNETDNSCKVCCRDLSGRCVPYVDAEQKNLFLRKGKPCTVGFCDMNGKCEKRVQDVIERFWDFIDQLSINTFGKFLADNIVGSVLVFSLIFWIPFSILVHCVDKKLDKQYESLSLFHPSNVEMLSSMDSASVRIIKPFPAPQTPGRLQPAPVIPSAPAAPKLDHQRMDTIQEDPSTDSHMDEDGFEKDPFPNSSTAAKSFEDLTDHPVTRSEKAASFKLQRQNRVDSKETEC

[3] = Luminescence Cell-Based Dose Response HTS to Identify Activators of Luciferase Translation or Activity in H4 […] Cells. [Related pubchem assays: 1829 (Project Summary), 1814 (Primary HTS)]; assay type: functional
[4] = Luminescence Cell-Based Dose Response to Identify Activators of Luciferase Translation or Activity in H4-C Neuroglioblastoma Cells. [Related pubchem assays: 1829 (Project Summary), 1814 (Primary HTS)]; assay type: functional
HeLa = assay: ATP-based viability loss in HeLa cells – cell-based, CellTiter-Glo luminescence, cherry-pick samples, cytotoxicity control for MITF activator project, dose response (AID 540259); assay type: functional; details: Homo sapiens
H4 = assay: Luminescence Cell-Based Dose Response HTS to Identify Activators of 5'UTR Stem-Loop Driven Prion Protein mRNA Translation in H4 Neuroglioblastoma Cells. [Related pubchem assays: 1829 (Project Summary), 1814 (Primary HTS)]; assay type: functional; details: Homo sapiens
[5] = Luminescence Cell-Based Dose Confirmation to Identify Activators of 5'UTR Stem-Loop Driven Alpha-Synuclein mRNA Translation in H4 Neuroglioblastoma Cells. [Related pubchem assays: 1829 (Project Summary), 1814 (Primary HTS)]; assay type: functional
[6] = Luminescence Cell-Based Dose Response to Identify Activators of 5'UTR Stem-Loop Driven Prion Protein mRNA Translation in H4-C Neuroglioblastoma Cells. [Related pubchem assays: 1829 (Project Summary), 1814 (Primary HTS)]; assay type: functional
[7] = biological target: T1, Oxysterols receptor LXR-beta (Homo sapiens, UniProt P55055); assay: LXR agonists, Gal4 luciferase reporter, dose response, counter-screen for ssDAF-12 agonist project, cell-based, luminescence, HEK293, S. stercoralis campaign (AID 720737); assay type: functional; details: read-out: IC50 (the source's name)
T1 sequence (P55055 whole entry): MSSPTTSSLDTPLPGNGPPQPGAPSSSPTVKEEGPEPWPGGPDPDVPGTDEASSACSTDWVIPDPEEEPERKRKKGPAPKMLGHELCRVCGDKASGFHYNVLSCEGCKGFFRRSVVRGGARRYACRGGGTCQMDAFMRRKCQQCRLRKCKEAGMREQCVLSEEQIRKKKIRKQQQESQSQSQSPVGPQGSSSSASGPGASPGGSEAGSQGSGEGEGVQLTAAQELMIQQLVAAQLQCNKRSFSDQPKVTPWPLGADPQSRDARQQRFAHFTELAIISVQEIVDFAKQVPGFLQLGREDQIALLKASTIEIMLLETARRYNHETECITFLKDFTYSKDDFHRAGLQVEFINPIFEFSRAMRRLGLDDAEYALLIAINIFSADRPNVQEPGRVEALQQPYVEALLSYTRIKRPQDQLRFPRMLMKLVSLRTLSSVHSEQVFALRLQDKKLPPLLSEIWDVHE

[8] = Luminescence-based cell-based high throughput dose response assay to identify activators of the DAF-12 from the parasite S. stercoralis (ssDAF-12).; assay type: functional
[9] = viability loss in Vero cells – cytotoxicity control for Vif-APOBEC3G degradation inhibitor project, dose response (AID 1117358); assay type: functional; details: Vero
[10] = Trypanosoma cruzi growth suppression in host cells – NIH3T3 host cells, beta-gal luminescence, confirmation (AID 2044); assay type: functional, cell-based;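 further: intracellular parasites grown in NIH/3T3 mouse fibroblasts as host cells; luminescent beta-galactosidase reporter signal from transgenic T. cruzi replicating inside host cells; inhibitors lower the luminescence signal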
[11] = NIH3T3 cell viability loss – ATP luminescence, mouse fibroblasts, counter-screen, dose response (AID 2010); assay type: functional, cell-based;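 further: cells exposed to compound for about 90 hours before reading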
[12] = blockers of bursicon-stimulated LGR2 cAMP reporter – cell-based, HEK293, CRE-luciferase reporter, cherry pick, set 2, dose response (AID 743343); assay type: functional;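 further: transfected cells were stimulated with diluted bursicon conditioned medium after compound addition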
[13] = blockers of HIV-1 envelope-mediated cell-cell fusion – cherry-pick, dose response (AID 652057); assay type: functional, cell-based
[14] = HIV-1 AD8 envelope cell-cell fusion blockers – cherry-pick, dose response (AID 652062); assay type: functional, cell-based;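 further: luciferase signal from cell-cell fusion driven by HIV-1 clade B AD8 Env; potency is for inhibitors of fusion seen as a drop in luminescence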
[15] = blockade of melanocortin 4 receptor signaling – cell-based, plate reader, cherry pick, counter-screen for LGR2 antagonist project, dose response (AID 743444); assay type: functional;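 further: transfected HEK 293 cells stimulated with alpha-MSH peptide; potency of inhibitors of the alpha-MSH evoked signal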
[16] = off-target signal loss in HeLa-CEM21 co-culture – HeLa F-luc CTL cells, cherry-picked, counter-screen for HIV-1 Env fusion inhibitor project, dose response (AID 652040); assay type: functional, cell-based;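 further: potency for signal decrease marking cytotoxic or nonspecific inhibition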
[17] = biological target: T2, Sentrin-specific protease 8 (Homo sapiens, UniProt Q96LD8); assay type: functional
T2 sequence (Q96LD8 whole entry): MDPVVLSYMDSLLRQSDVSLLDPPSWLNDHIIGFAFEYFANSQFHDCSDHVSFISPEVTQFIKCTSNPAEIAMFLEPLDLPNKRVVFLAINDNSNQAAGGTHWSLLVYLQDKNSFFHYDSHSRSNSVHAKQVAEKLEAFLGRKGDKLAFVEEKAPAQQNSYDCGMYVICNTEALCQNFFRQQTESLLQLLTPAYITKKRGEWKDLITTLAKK

[18] = biological target: T2, Sentrin-specific protease 8; assay type: functional; remark: listed apart in the source
Caspase-6 = biological target: T3, Caspase-6 (Homo sapiens, UniProt P55212); assay: inhibition of CASP6 peptide cleavage – biochemical, VEID-R110 fluorescence, cherry-pick, dose response (AID 720632)
T3 sequence (P55212 whole entry): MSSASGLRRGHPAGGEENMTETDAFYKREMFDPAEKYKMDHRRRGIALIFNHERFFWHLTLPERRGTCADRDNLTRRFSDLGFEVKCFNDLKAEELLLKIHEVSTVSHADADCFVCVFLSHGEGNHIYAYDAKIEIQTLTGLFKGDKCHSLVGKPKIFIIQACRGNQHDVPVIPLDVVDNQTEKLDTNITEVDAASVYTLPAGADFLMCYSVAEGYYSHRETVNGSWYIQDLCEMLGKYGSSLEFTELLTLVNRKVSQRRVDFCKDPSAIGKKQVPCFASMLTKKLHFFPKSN

## Cc1ccc(Nc2nc(N)nc(CSc3nc4ccccc4s3)n2)cc1
[1]
  IC50: > 7.72 µM (active)
[2]
  IC50: > 69.5 µM (inactive)

## Clc1ccc(-c2cn3c(n2)CCC3)cc1
[3]
  EC50: < 0.1 µM (active)
[4]
  EC50: 0.299 µM (active)
HeLa
  AC50: 173 µM (active)
H4
  EC50: > 120 µM (not active)
[5]
  EC50: 0.319 µM (active)
[6]
  EC50: 0.397 µM (active)

## CC1CCC(NC(=O)c2ccc(S(C)(=O)=O)cc2)CC1 (stereo not drawn)
[7]
  EC50: > 67.5 µM (inactive)
[8]
  IC50: > 67.5 µM (inactive)

## COc1ccc(CCNC(=O)CSc2nc(-c3ccco3)cc(C(F)(F)F)n2)cc1
[9]
  CC50: > 40 µM (active)

## Cc1ccc(C(=O)Nc2ccccc2-c2ccccc2)cc1S(=O)(=O)Nc1cccc(C)c1C
[1]
  IC50: > 69.5 µM (inactive)
[10]
  EC50: 1.57 µM (active)
[2]
  IC50: > 69.5 µM (inactive)
[11]
  EC50: > 60 µM (not active)

## Cc1cc(C(=O)CN2C(=O)c3ccccc3S2(=O)=O)c(C)n1C(C)C
[12]
  AC50: 2.48 µM (active)
[13]
  AC50: 3.93 µM (active)
[14]
  AC50: 7.58 µM (active)
[15]
  AC50: 2.08 µM (active)
[16]
  AC50: 3.75 µM (active)

## CC1Cc2ccccc2N1C(=O)COC(=O)c1ccc([N+](=O)[O-])o1 (stereo not drawn)
[17]
  IC50: 3.78 µM (active)
[18]
  IC50: 8.67 µM (active)
Caspase-6
  AC50: 13 µM (active)
